According to publication PMC7044277 (Nature Communications, 2020):
Where “and” joins values, the source holds several entries; their conditions need not be identical. Identical values can stand only once.

Key:
Type in all cases: cell-based
320 non-olfactory GPCRs [1] = target: T1, 320 non-olfactory GPCRs (Homo sapiens, UniProt P51685)
T1 construct: expressed in transfected cells; host or cells: HTLA cells

320 non-olfactory GPCRs [2] = target: T2, 320 non-olfactory GPCRs (Homo sapiens, UniProt Q99527)
T2 construct: expressed in transfected cells; host or cells: HTLA cells

320 non-olfactory GPCRs [3] = target: T3, 320 non-olfactory GPCRs (Homo sapiens, UniProt Q86SQ4)
T3 construct: expressed in transfected cells; host or cells: HTLA cells

320 non-olfactory GPCRs [4] = target: T4, 320 non-olfactory GPCRs (Homo sapiens, UniProt Q9H1Y3); conditions: receptor OPN3; replicate values, Fig_4g
T4 construct: expressed in transfected cells; host or cells: HTLA cells
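Wherever Fold of Basal is given: compound tested at 1 µM final concentration.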
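Wherever GPCRome agonism screen response is given: fold over basal response of each receptor without drug.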

T1 sequence (P51685 whole entry): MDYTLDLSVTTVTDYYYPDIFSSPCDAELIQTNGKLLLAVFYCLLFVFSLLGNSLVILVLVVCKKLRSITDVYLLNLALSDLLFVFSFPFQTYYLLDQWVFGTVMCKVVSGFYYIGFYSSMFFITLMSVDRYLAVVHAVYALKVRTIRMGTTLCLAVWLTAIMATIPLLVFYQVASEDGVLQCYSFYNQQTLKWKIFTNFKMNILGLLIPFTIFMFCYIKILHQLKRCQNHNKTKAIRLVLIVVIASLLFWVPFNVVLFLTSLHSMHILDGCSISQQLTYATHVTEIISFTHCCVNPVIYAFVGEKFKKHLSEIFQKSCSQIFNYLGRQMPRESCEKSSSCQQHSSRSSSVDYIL
T4 sequence (Q9H1Y3 whole entry): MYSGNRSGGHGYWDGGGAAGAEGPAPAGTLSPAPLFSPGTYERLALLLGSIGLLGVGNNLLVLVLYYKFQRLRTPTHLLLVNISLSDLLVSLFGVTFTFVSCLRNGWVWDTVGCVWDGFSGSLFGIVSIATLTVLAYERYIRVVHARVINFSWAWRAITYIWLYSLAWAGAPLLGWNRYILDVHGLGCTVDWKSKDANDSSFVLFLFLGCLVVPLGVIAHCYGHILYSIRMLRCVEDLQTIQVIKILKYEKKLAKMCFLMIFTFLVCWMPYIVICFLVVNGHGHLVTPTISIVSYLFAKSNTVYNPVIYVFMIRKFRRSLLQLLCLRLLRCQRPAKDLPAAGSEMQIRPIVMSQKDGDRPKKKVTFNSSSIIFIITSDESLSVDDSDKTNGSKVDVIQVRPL
T2 sequence (Q99527 whole entry): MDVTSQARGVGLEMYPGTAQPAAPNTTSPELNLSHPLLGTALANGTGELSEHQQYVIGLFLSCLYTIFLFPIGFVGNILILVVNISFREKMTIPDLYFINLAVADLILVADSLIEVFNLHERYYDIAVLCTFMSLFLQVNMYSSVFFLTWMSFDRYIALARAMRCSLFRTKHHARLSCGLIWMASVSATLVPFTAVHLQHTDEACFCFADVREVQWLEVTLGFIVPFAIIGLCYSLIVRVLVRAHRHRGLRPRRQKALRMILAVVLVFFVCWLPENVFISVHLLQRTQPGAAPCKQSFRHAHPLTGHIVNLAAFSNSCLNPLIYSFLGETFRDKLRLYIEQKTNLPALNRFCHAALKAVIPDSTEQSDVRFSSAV
T3 sequence (Q86SQ4 38-1221): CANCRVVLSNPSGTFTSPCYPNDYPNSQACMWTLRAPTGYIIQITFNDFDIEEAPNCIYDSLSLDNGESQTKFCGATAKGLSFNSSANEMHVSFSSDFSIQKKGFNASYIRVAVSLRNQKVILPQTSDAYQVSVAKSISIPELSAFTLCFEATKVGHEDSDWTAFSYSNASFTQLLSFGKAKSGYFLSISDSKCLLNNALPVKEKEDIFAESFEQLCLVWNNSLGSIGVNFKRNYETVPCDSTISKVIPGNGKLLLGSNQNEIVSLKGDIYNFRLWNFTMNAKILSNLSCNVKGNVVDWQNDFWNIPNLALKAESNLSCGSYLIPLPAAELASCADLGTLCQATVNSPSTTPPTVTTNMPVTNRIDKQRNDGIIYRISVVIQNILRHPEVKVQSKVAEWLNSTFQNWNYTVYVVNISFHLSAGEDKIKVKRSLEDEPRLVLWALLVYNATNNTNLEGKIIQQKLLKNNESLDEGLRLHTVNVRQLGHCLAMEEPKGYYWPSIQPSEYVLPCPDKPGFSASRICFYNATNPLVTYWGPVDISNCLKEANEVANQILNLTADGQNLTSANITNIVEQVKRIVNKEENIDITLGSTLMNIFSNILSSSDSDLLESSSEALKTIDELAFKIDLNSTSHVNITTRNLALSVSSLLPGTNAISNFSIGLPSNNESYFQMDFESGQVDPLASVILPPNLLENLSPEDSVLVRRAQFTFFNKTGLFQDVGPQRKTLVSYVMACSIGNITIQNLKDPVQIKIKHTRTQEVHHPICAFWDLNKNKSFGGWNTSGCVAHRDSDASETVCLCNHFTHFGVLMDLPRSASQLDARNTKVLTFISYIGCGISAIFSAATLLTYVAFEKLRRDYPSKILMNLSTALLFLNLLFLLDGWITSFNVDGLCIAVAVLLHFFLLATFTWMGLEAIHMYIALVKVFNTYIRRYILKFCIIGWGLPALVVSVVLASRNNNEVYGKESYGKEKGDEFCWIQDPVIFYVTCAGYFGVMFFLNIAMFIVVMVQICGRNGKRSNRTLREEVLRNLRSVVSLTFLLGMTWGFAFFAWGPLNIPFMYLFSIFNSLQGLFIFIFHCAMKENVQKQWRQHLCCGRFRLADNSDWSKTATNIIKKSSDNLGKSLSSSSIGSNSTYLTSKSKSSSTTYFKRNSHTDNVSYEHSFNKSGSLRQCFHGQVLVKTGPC

**Q.** How did the “Fold of Basal” value (320 non-olfactory GPCRs [1]) turn out when `CCOc1cccc2cc(C(C)NCC3(O)CCCCC3)oc12` (stereo not shown) [O4LE6] was run?
**A.** 1.057 (2×) and 0.6946 and 0.6945

**Q.** What about the “Fold of Basal” value (320 non-olfactory GPCRs [2]) of the same molecule?
**A.** 0.9251 and 0.8387 and 0.6915 and 0.7823

**Q.** What about the “Fold of Basal” value (320 non-olfactory GPCRs [3]) of the same molecule?
**A.** 0.5649 and 0.8908 and 0.7066 and 0.464

**Q.** What about the “GPCRome agonism screen response” value (320 non-olfactory GPCRs [4]) of the same molecule?
**A.** 1.462 and 1.944 and 1.753 and 1.142
